Consider 4 compounds from ChEMBL document CHEMBL1128048, “Synthesis of chromophoric dipeptides as substrates for papain” (Bioorg Med Chem Lett, 1995).

Holding throughout (assay type): ADME
Data set [1] can be described thus: Compound was evaluated for catalytic constant, Kcat.
Data set [2] in a line: Ratio of catalytic constant to Michaelis-Menten constant (Kcat/Km).
Data set [3] is described as follows: Compound was evaluated for Michaelis-Menten constant, Km.

In turn, `Cc1ccc(/C=C\C(=O)n2ccnc2)s1` yielded a k cat in data set [1] of 0.0012 s⁻¹.

In data set [1], `CCOC(=O)/C(=C\c1ccc(C)s1)NC(=O)[C@H](Cc1ccccc1)NC(C)=O` yielded a k cat of 0.0033 s⁻¹. In addition, the Ratio in data set [2] is listed as 3.2. Moreover, in data set [3], the Km came out at 0.062 Me-3.

`CCOC(=O)N/C(=C/c1ccc(C)s1)C(=O)n1ccnc1` came in with a k cat in data set [1] of 0.0013 s⁻¹.

For `CCOC(=O)/C(=C\c1ccc(C)s1)NC(=O)[C@H](C)NC(C)=O`, in data set [1], the k cat was determined as 0.0033 s⁻¹. The Ratio in data set [2] was determined as 0.05. Besides, the Km in data set [3] was 3.9 Me-3.
